Holding throughout (experiment): biochemical
One assay has as its target T1, P99 AmpC β-lactamase (Enterobacter cloacae, UniProt P05364).
T1 construct: The β-lactamases were extracted by four cycles of freezing and thawing followed by centrifugation; endogenous in cells; host or cells: Enterobacter cloacae cells containing P99 (crude freeze-thaw extract)
It is filed as biochemical. The note with it: crude enzyme extract, 10 min preincubation at 37° C., nitrocefin 100 μM, PBS pH 7.0; read-out: P99 AmpC IC50 Range. The method, then: (§1) Isolation of β-lactamases. Crude β-lactamase extracts were prepared from 20 ml overnight cultures with shaking. Escherichia coli cells containing SHV-5 or CTXM-15 and Enterobacter cloacae cells containing P99 were further diluted 10-fold and grown to mid-log phase (OD at 600 nm, 0.5-0.8) in Mueller-Hinton II (MH-II) broth at 37° C. The cells were pelleted at 5000 g, washed and resuspended in 2 mL PBS pH 7.0. The β-lactamases were extracted by four cycles of freezing and thawing followed by centrifugation. β-lactamase activity in the extracts was measured with the chromogenic cephalosporin nitrocefin. The amount of protein in each β-lactamase preparation was determined by the bicinchoninic acid (BCA) assay.
(§2) β-lactamase Inhibition. To determine the level of inhibition of β-lactamase enzymes, compounds were diluted in PBS at pH 7.0 to yield concentrations between 100 and 0.005 μM in microtiter plates. An equal volume of diluted enzyme stock was added, and the plates were incubated at 37° C. for 10 min. Nitrocefin solution was then dispensed as substrate into each well at a final concentration of 100 μM, and the plates were immediately read with the kinetic program at 486 nm for 10 min on the SPECTRAMAX® Plus^384 (high-throughput microplate spectrophotometer; Molecular Devices Corp., Sunnyvale, Calif.). Maximum rates of metabolism were then compared to those in control wells (without inhibitors), and percentages of enzyme inhibition were calculated for each concentration of inhibitor. The concentration of inhibitor needed to reduce the initial rate of hydrolysis of substrate by 50% (IC50) was calculated as the residual activity of β-lactamase at 486 nm using the SoftMax Pro 5.0 software (Molecular Devices Corp.).

The next assay deals with T2, CTXM-15 β-lactamase (Escherichia coli, UniProt Q9EXV5).
T2 construct: The β-lactamases were extracted by four cycles of freezing and thawing followed by centrifugation; endogenous in cells; host or cells: Escherichia coli cells containing CTXM-15 (crude freeze-thaw extract)
Type of assay: biochemical. The note with it: crude enzyme extract, 10 min preincubation at 37° C., nitrocefin 100 μM, PBS pH 7.0; read-out: CTXM-15 IC50 Range. The method, then:
as §1, §2

The target in another assay is T3, SHV-5 β-lactamase (Klebsiella pneumoniae, UniProt P0A3M1).
T3 construct: The β-lactamases were extracted by four cycles of freezing and thawing followed by centrifugation; endogenous in cells; host or cells: Escherichia coli cells containing SHV-5 (crude freeze-thaw extract)
Type of assay: biochemical, Escherichia coli. The settings on record: crude enzyme extract, 10 min preincubation at 37° C., nitrocefin 100 μM, PBS pH 7.0; read-out: SHV-5 IC50 Range. The method, then:
as §1, §2

Where only a bound is given, the exact number is not on record here.

T1 sequence (P05364 21-381): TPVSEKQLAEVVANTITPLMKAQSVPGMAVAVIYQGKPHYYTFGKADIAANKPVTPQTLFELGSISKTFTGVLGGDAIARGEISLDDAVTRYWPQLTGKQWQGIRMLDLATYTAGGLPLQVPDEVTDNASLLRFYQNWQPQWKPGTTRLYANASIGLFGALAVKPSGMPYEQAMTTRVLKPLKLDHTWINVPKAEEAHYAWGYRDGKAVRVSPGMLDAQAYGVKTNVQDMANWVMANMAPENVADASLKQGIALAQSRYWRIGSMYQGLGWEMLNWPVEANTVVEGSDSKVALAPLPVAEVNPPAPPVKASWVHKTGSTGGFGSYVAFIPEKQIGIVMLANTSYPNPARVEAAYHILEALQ
T3 sequence (P0A3M1 22-286): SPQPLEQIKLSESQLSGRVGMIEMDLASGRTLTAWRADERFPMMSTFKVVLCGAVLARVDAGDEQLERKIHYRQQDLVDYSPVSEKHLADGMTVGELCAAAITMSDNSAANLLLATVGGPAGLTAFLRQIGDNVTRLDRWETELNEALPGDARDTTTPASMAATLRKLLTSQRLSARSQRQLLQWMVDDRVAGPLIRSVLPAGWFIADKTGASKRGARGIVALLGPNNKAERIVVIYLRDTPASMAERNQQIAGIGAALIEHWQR
T2 sequence (Q9EXV5 29-291): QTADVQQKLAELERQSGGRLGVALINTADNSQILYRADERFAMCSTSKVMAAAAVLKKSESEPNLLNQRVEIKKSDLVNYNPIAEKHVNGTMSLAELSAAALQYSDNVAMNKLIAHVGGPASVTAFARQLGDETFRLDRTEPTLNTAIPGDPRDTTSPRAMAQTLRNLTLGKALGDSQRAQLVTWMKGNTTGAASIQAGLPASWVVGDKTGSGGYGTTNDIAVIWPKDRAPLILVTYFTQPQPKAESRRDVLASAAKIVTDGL

As a reminder, the IC50 is the concentration that gives 50% inhibition. On to `O=C(Cc1cccc(Cl)c1)N[C@@H](Cc1cccc(C(=O)O)c1)B(O)O` [Example 3, (1R)-1-(3-Chlorophenylacetylamino)-2-(3-carboxyphenyl)ethyl-1-boronic acid], for which the values for the IC50 at P99 AmpC β-lactamase, at CTXM-15 β-lactamase and on SHV-5 β-lactamase were 0.1 to 1 µM, < 0.1 µM and < 0.1 µM, respectively.

Take `COc1ccc(OC)c(CC(=O)N[C@@H](Cc2cccc(C(=O)O)c2)B(O)O)c1` [Example 4, (1R)-1-(2,5-Dimethoxyphenylacetylamino)-2-(3-carboxyphenyl)ethyl-1-boronic acid]: the IC50 at P99 AmpC β-lactamase was 0.1 to 1 µM; on SHV-5 β-lactamase, > 1 µM.

Take `O=C(CC1CCCCC1)N[C@@H](Cc1cccc(C(=O)O)c1)B(O)O` [Example 5, (1R)-1-(Cyclohexylacetylamino)-2-(3-carboxyphenyl)ethyl-1-boronic acid]: the IC50 on P99 AmpC β-lactamase and on SHV-5 β-lactamase was > 1 µM in each case.

Regarding `O=C(Cc1cc(F)ccc1F)N[C@@H](Cc1cccc(C(=O)O)c1)B(O)O` [Example 6, (1R)-1-(2,5-Difluorophenylacetylamino)-2-(3-carboxyphenyl)ethyl-1-boronic acid], the IC50 was 0.1 to 1 µM on P99 AmpC β-lactamase and < 0.1 µM at SHV-5 β-lactamase.

Turning to `O=C(Cc1cccc(Br)c1)N[C@@H](Cc1cccc(C(=O)O)c1)B(O)O` [Example 7, (1R)-1-(3-Bromophenylacetylamino)-2-(3-carboxyphenyl)ethyl-1-boronic acid], the IC50 at P99 AmpC β-lactamase and on SHV-5 β-lactamase was 0.1 to 1 µM throughout.

For `O=C(Cc1cccc(C(F)(F)F)c1)N[C@@H](Cc1cccc(C(=O)O)c1)B(O)O` [Example 8, (1R)-1-(3-Trifluoromethylphenylacetylamino)-2-(3-carboxyphenyl)ethyl-1-boronic acid], the figures for the IC50 at P99 AmpC β-lactamase, on CTXM-15 β-lactamase and on SHV-5 β-lactamase were > 1 µM, 0.1 to 1 µM and 0.1 to 1 µM, respectively.

On to `O=C(Cc1ccc(C(F)(F)F)cc1)N[C@@H](Cc1cccc(C(=O)O)c1)B(O)O` [Example 9, (1R)-1-(4-Trifluoromethylphenylacetylamino)-2-(3-carboxyphenyl)ethyl-1-boronic acid], for which the IC50 is 0.1 to 1 µM at P99 AmpC β-lactamase, < 0.1 µM on CTXM-15 β-lactamase and < 0.1 µM at SHV-5 β-lactamase.

In the case of `O=C(CCc1cccs1)N[C@@H](Cc1cccc(C(=O)O)c1)B(O)O` [Example 10, (1R)-1-(3-thiophene-2-yl-propionylamino)-2-(3-carboxyphenyl)ethyl-1-boronic acid], the IC50 at P99 AmpC β-lactamase was > 1 µM; at CTXM-15 β-lactamase, 0.1 to 1 µM; on SHV-5 β-lactamase it was > 1 µM.

For `O=C(Cc1cccc2ccccc12)N[C@@H](Cc1cccc(C(=O)O)c1)B(O)O` [Example 15, (1R)-1-(2-naphthalen-1-yl-acetylamino)-2-(3-carboxyphenyl)ethyl-1-boronic acid], the IC50 on P99 AmpC β-lactamase and on SHV-5 β-lactamase was > 1 µM in each case.

For `O=C(Cc1ccc(Br)cc1)N[C@@H](Cc1cccc(C(=O)O)c1)B(O)O` [Example 16, (1R)-1-(4-Bromophenylacetylamino)-2-(3-carboxyphenyl)ethyl-1-boronic acid], the results for the IC50 on P99 AmpC β-lactamase and on SHV-5 β-lactamase were > 1 µM and 0.1 to 1 µM, respectively.

For `O=C(Cc1cccc(C(=O)O)c1)N[C@@H](Cc1cccc(C(=O)O)c1)B(O)O` [Example 17, (1R)-1-(3-Carboxyphenylacetylamino)-2-(3-carboxyphenyl)ethyl-1-boronic acid], the concentration for half-maximal inhibition (IC50) at P99 AmpC β-lactamase is > 1 µM; on SHV-5 β-lactamase, 0.1 to 1 µM.

With `O=C(Cc1cccs1)N[C@@H](Cc1ccc(Cl)c(C(=O)O)c1)B(O)O` [Example 18, (1R)-1-(2-thiophene-2-yl-acetylamino)-2-(3-carboxy-4-chlorophenyl)ethyl-1-boronic acid], the IC50 is 0.1 to 1 µM on P99 AmpC β-lactamase and < 0.1 µM on SHV-5 β-lactamase.

For the compound `O=C(Cc1ccccc1Br)N[C@@H](Cc1cccc(C(=O)O)c1)B(O)O` [Example 20, (1R)-1-(2-Bromophenylacetylamino)-2-(3-carboxyphenyl)ethyl-1-boronic acid], the IC50 at P99 AmpC β-lactamase and on SHV-5 β-lactamase was 0.1 to 1 µM each time.

These data come from US20100317621A1, “BETA-LACTAMASE INHIBITORS” (priority 2007, published 2010).
